Assay results taken from patent US12152020B2, “Pesticidally active azole-amide compounds” (SYNGENTA PARTICIPATIONS AG, priority 2018, dated 2024).

Legend:
Assay type in all cases: in vivo
[1] = tested on: Plutella xylostella (Diamond Back Moth); assay: Example B5: Plutella xylostella, artificial diet in 24-well plates, eggs; conditions: 192 h, application rate of 200 ppm, 8 days after infestation, in comparison to untreated samples, read-out: effect in at least one of the two categories (mortality or growth inhibition)
Description: Example B5: Plutella xylostella (Diamond Back Moth)
24-well microtiter plates with artificial diet were treated with aqueous test solutions prepared from 10′000 ppm DMSO stock solutions by pipetting. After drying, Plutella eggs were pipetted through a plastic stencil onto a gel blotting paper and the plate was closed with it. The samples were assessed for mortality and growth inhibition in comparison to untreated samples 8 days after infestation.
The following compounds gave an effect of at least 80% in at least one of the two categories (mortality or growth inhibition) at an application rate of 200 ppm: • P1, P2, P3, P4, P5, P7, P8, P9, P14, P15, P16, P17, P18, P21, P22, P23, P24, P25, P27, P28, P29, P30, P31, P32, P33, P34, P35, P36

[2] = tested on: Euschistus heros (Neotropical Brown Stink Bug); assay: Example B2: Euschistus heros, soybean leaves sprayed, N2 nymphs; conditions: 120 h, application rate of 200 ppm, 5 days after infestation, in comparison to untreated samples, read-out: effect in at least one of the two categories (mortality or growth inhibition)
Description: Example B2: Euschistus heros (Neotropical Brown Stink Bug)
Soybean leaves on agar in 24-well microtiter plates were sprayed with aqueous test solutions prepared from 10′000 ppm DMSO stock solutions. After drying the leaves were infested with N2 nymphs. The samples were assessed for mortality and growth inhibition in comparison to untreated samples 5 days after infestation.
The following compounds gave an effect of at least 80% in at least one of the two categories (mortality or growth inhibition) at an application rate of 200 ppm: • P1, P2, P3, P7, P11, P12, P16, P17, P18, P22, P25, P29, P32, P33, P37, P38

[3] = tested on: Spodoptera littoralis (Egyptian Cotton Leaf Worm); assay: Example B9: Spodoptera littoralis, cotton leaf discs sprayed, L1 larvae; conditions: foliar, 72 h, application rate of 200 ppm, five L1 larvae, 3 days after infestation, in comparison to untreated samples, read-out: control in at least one of the categories (mortality, anti-feedant effect, or growth inhibition)
Description: Example B9: Spodoptera littoralis (Egyptian Cotton Leaf Worm)
Cotton leaf discs were placed onto agar in 24-well microtiter plates and sprayed with aqueous test solutions prepared from 10′000 ppm DMSO stock solutions. After drying the leaf discs were infested with five L1 larvae. The samples were assessed for mortality, anti-feeding effect, and growth inhibition in comparison to untreated samples 3 days after infestation. Control of Spodoptera littoralis by a test sample is given when at least one of the categories mortality, anti-feedant effect, and growth inhibition is higher than the untreated sample.

[4] = tested on: Myzus persicae (Green Peach Aphid); assay: Example B8: Myzus persicae intrinsic activity, sucrose solution under Parafilm, 24-well; conditions: 120 h, test rate of 12 ppm, 5 days after infestation
Source text: Example B8: Myzus persicae (Green Peach Aphid): Intrinsic Activity
Test compounds prepared from 10′000 ppm DMSO stock solutions were applied by pipette into 24-well microtiter plates and mixed with sucrose solution. The plates were closed with a stretched Parafilm. A plastic stencil with 24 holes was placed onto the plate and infested pea seedlings were placed directly on the Parafilm. The infested plate was closed with a gel blotting paper and another plastic stencil and then turned upside down. The samples were assessed for mortality 5 days after infestation.

[5] = tested on: Myzus persicae (Green Peach Aphid); assay: Example B13: Myzus persicae, sucrose solution under Parafilm, 96-well; conditions: 120 h, application rate of 50 ppm, 5 days after infestation
Source text: Example B13: Myzus persicae (Green Peach Aphid)
Test compounds prepared from 10′000 ppm DMSO stock solutions were applied by a liquid handling robot into 96-well microtiter plates and mixed with a sucrose solution. Parafilm was stretched over the 96-well microtiter plate and a plastic stencil with 96 holes was placed onto the plate. Aphids were sieved into the wells directly onto the Parafilm. The infested plates were closed with a gel blotting card and a second plastic stencil and then turned upside down. The samples were assessed for mortality 5 days after infestation.

[6] = tested on: Plutella xylostella (Diamondback Moth); assay: Example B14: Plutella xylostella, artificial diet in 96-well plates, eggs; conditions: 216 h, application rate of 500 ppm, 9 days after infestation
Description: Example B14: Plutella xylostella (Diamondback Moth)
96-well microtiter plates containing artificial diet were treated with aqueous test solutions, prepared from 10′000 ppm DMSO stock solutions, by a liquid handling robot. After drying, eggs (˜30 per well) were infested onto a netted lid which was suspended above the diet. The eggs hatch and L1 larvae move down to the diet. The samples were assessed for mortality 9 days after infestation.
The following compounds gave an effect of at least 80% average mortality at an application rate of 500 ppm: • P2, P3, P5, P6, P7, P9, P15, P16, P17, P18, P20, P22, P24, P25, P30, P31, P32, P33, P38.

[7] = tested on: Diabrotica balteata (Corn Root Worm); assay: Example B1: Diabrotica balteata, maize sprouts sprayed, L2 larvae; conditions: 96 h, application rate of 200 ppm, 4 days after infestation, in comparison to untreated samples, read-out: effect in at least one of the two categories (mortality or growth inhibition)
Description: Example B1: Diabrotica balteata (Corn Root Worm)
Maize sprouts placed onto an agar layer in 24-well microtiter plates were treated with aqueous test solutions prepared from 10′000 ppm DMSO stock solutions by spraying. After drying, the plates were infested with L2 larvae (6 to 10 per well). The samples were assessed for mortality and growth inhibition in comparison to untreated samples 4 days after infestation.
The following compounds gave an effect of at least 80% in at least one of the two categories (mortality or growth inhibition) at an application rate of 200 ppm: • P2, P3, P4, P5, P6, P7, P8, P14, P15, P16, P17, P18, P19, P20, P21, P22, P23, P24, P25, P27, P28, P29, P30, P31, P32, P33, P34, P35

[8] = tested on: Myzus persicae (Green Peach Aphid); assay: Example B7: Myzus persicae systemic activity, pea seedling roots in test solution; conditions: 144 h, test rate of 24 ppm, 6 days after placing seedlings into test solutions
Description: Example B7: Myzus persicae (Green Peach Aphid): Systemic Activity
Roots of pea seedlings infested with an aphid population of mixed ages were placed directly into aqueous test solutions prepared from 10′000 DMSO stock solutions. The samples were assessed for mortality 6 days after placing seedlings into test solutions.

[9] = tested on: Myzus persicae (Green Peach Aphid); assay: Example B6: Myzus persicae feeding/contact activity, sunflower leaf discs; conditions: foliar, 144 h, application rate of 200 ppm, aphid population of mixed ages, 6 days after infestation
Description: Example B6: Myzus persicae (Green Peach Aphid): Feeding/Contact Activity
Sunflower leaf discs were placed onto agar in a 24-well microtiter plate and sprayed with aqueous test solutions prepared from 10′000 ppm DMSO stock solutions. After drying, the leaf discs were infested with an aphid population of mixed ages. The samples were assessed for mortality 6 days after infestation.

[10] = tested on: Chilo suppressalis (Striped Rice Stemborer); assay: Example B4: Chilo suppressalis, artificial diet, L2 larvae; conditions: 144 h, application rate of 200 ppm, 6 days after infestation, in comparison to untreated samples, read-out: control in at least one of the categories (mortality, anti-feedant effect, or growth inhibition)
Description: Example B4: Chilo suppressalis (Striped Rice Stemborer)
24-well microtiter plates with artificial diet were treated with aqueous test solutions prepared from 10′000 ppm DMSO stock solutions by pipetting. After drying, the plates were infested with L2 larvae (6-8 per well). The samples were assessed for mortality, anti-feeding effect, and growth inhibition in comparison to untreated samples 6 days after infestation. Control of Chilo suppressalis by a test sample is given when at least one of the categories mortality, anti-feedant effect, and growth inhibition is higher than the untreated sample.

[11] = tested on: Frankliniella occidentalis (Western Flower Thrips); assay: Example B3: Frankliniella occidentalis feeding/contact activity, sunflower leaf discs; conditions: foliar, 168 h, application rate of 200 ppm, population of mixed ages, 7 days after infestation
Description: Example B3: Frankliniella occidentalis (Western Flower Thrips):Feeding/Contact Activity
Sunflower leaf discs were placed on agar in 24-well microtiter plates and sprayed with aqueous test solutions prepared from […] stock solutions. After drying the leaf discs were infested with a Frankliniella population of mixed ages. The samples were assessed for mortality 7 days after infestation.

[12] = tested on: Thrips tabaci (Onion thrips); assay: Example B12: Thrips tabaci feeding/contact activity, sunflower leaf discs; conditions: foliar, 144 h, application rate of 200 ppm, thrips population of mixed ages, 6 days after infestation
Description: Example B12: Thrips tabaci (Onion thrips): Feeding/Contact Activity
Sunflower leaf discs were placed on agar in 24-well microtiter plates and sprayed with aqueous test solutions prepared from 10′000 ppm DMSO stock solutions. After drying the leaf discs were infested with a thrips population of mixed ages. The samples were assessed for mortality 6 days after infestation.

COCc1nc(C(C)NC(=O)c2cc(C(F)(F)F)cc(C(F)(F)F)c2)n(-c2ncccn2)n1 (stereo not shown) [Compound P2, N-[1-[5-(methoxymethyl)-2-pyrimidin-2-yl-1,2,4-triazol-3-yl]ethyl]-3,5-bis(trifluoromethyl)benzamide]
≥ 80%: percent effect (mortality or growth inhibition) at 200 ppm [1] | percent effect (mortality or growth inhibition) at 200 ppm [2] | percent control (mortality, anti-feedant effect or growth inhibition) at 200 ppm [3] | mortality at 12 ppm [4] | mortality at 50 ppm [5] | mortality at 500 ppm [6] | percent effect (mortality or growth inhibition) at 200 ppm [7] | mortality at 24 ppm [8]

CC(NC(=O)c1cc(C(F)(F)F)cc(C(F)(F)F)c1)c1nc(Br)nn1-c1ncccn1 (stereo not shown) [Compound P4, N-[1-(5-bromo-2-pyrimidin-2-yl-1,2,4-triazol-3-yl)ethyl]-3,5-bis(trifluoromethyl) benzamide]
≥ 80%: mortality at 200 ppm [9] | percent control (mortality, anti-feedant effect or growth inhibition) at 200 ppm [10] | percent effect (mortality or growth inhibition) at 200 ppm [1] | percent control (mortality, anti-feedant effect or growth inhibition) at 200 ppm [3] | mortality at 12 ppm [4] | percent effect (mortality or growth inhibition) at 200 ppm [7] | mortality at 200 ppm [11]

CC(c1nc(I)nn1-c1ncccn1)N(CC1CC1)C(=O)c1cc(C(F)(F)F)cc(C(F)(F)F)c1 (stereo not shown) [Compound P5, N-(cyclopropylmethyl)-N-[1-(5-iodo-2-pyrimidin-2-yl-1,2,4-triazol-3-yl)ethyl]-3,5-bis(trifluoromethyl) benzamide]
≥ 80%: percent effect (mortality or growth inhibition) at 200 ppm [1] | percent control (mortality, anti-feedant effect or growth inhibition) at 200 ppm [3] | mortality at 50 ppm [5] | mortality at 500 ppm [6] | mortality at 200 ppm [12] | percent effect (mortality or growth inhibition) at 200 ppm [7]

CNC(=O)c1nc(C(C)N(C)C(=O)c2cc(C(F)(F)F)cc(C(F)(F)F)c2)n(-c2ncccn2)n1 (stereo not shown) [Compound P12, 5-[1-[[3.5-bis(trifluoromethyl)benzoyl]-methyl-amino]ethyl]-N-methyl-1-pyrimidin-2-yl-1,2,4-triazole-3-carboxamide]
≥ 80%: mortality at 200 ppm [9] | percent control (mortality, anti-feedant effect or growth inhibition) at 200 ppm [10] | percent effect (mortality or growth inhibition) at 200 ppm [2] | mortality at 12 ppm [4] | mortality at 50 ppm [5] | mortality at 24 ppm [8] | mortality at 200 ppm [11]

CC(c1nc(N(C)C)nn1-c1ncccn1)N(C)C(=O)c1cc(C(F)(F)F)cc(C(F)(F)F)c1 (stereo not shown) [Compound P16, N-[1-[5-(dimethylamino)-2-pyrimidin-2-yl-1,2,4-triazol-3-yl]ethyl]-N-methyl-3,5-bis(trifluoromethyl) benzamide]
≥ 80%: mortality at 200 ppm [9] | percent effect (mortality or growth inhibition) at 200 ppm [1] | percent effect (mortality or growth inhibition) at 200 ppm [2] | percent control (mortality, anti-feedant effect or growth inhibition) at 200 ppm [3] | mortality at 12 ppm [4] | mortality at 50 ppm [5] | mortality at 500 ppm [6] | percent effect (mortality or growth inhibition) at 200 ppm [7] | mortality at 24 ppm [8] | mortality at 200 ppm [11]

CC(NC(=O)c1cc(C(F)(F)F)cc(C(F)(F)F)c1)c1nc(S(C)(=O)=O)nn1-c1ncccn1 (stereo not shown) [Compound P21, N-[1-(5-methylsulfonyl-2-pyrimidin-2-yl-1,2,4-triazol-3-yl)ethyl]-3,5-bis(trifluoromethyl) benzamide]
≥ 80%: mortality at 200 ppm [9] | percent control (mortality, anti-feedant effect or growth inhibition) at 200 ppm [10] | percent effect (mortality or growth inhibition) at 200 ppm [1] | percent control (mortality, anti-feedant effect or growth inhibition) at 200 ppm [3] | mortality at 12 ppm [4] | mortality at 50 ppm [5] | percent effect (mortality or growth inhibition) at 200 ppm [7] | mortality at 24 ppm [8]
